Experimental data taken from PubChem BioAssay AID248 (DTP/NCI, 2004).
Several values for one entry are separate records, joined by “and”; a condition that tells them apart may be missing. Identical values can stand only once. Inconclusive results and toxic doses are left out. Rule as the data show it: active = T/C of 150% or more; inactive = T/C below 125%.

Test system: L1210 leukemia ip in BDF1 mice, survival T/C
Assay: NCI In Vivo Anticancer Drug Screen. Data for tumor model L1210 Leukemia (intraperitoneal) in B6D2F1 (BDF1) mice
Settings: higher = longer survival
Outline: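 Read-out is survival time, reported as the treated-group measurement over the vehicle-control measurement.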

Measured: T/C

CN(C)/N=N/c1nc[nH]c1C(N)=O
inactive: endpoint: mean survival time, dose: 3.12 mg/kg/injection, schedule: Q#A X Z (ip), vehicle: carboxymethylcellulose (CMC) 100 % of control | endpoint: mean survival time, dose: 3.3 mg/kg/injection, schedule: Q01DX009 (ip), vehicle: carboxymethylcellulose (CMC) 104 % of control | endpoint: mean survival time, dose: 6.2 mg/kg/injection, schedule: Q01DX Z (ip), vehicle: saline 106 % of control | endpoint: mean survival time, dose: 6.25 mg/kg/injection, schedule: Q01DX006 (iv), vehicle: carboxymethylcellulose (CMC) 107 % of control | endpoint: mean survival time, dose: 6.25 mg/kg/injection, schedule: Q01DX Z (im), vehicle: carboxymethylcellulose (CMC) 101 % of control | endpoint: mean survival time, dose: 6.25 mg/kg/injection, schedule: Q01DX Z (ip), vehicle: carboxymethylcellulose (CMC) 106 % of control | endpoint: mean survival time, dose: 6.5 mg/kg/injection, schedule: Q01DX009 (ip), vehicle: carboxymethylcellulose (CMC) 100 % of control | endpoint: mean survival time, dose: 7.5 mg/kg/injection, schedule: Q03HX032 (ip), vehicle: carboxymethylcellulose (CMC) 108 % of control | endpoint: mean survival time, dose: 9.0 mg/kg/injection, schedule: Q01DX001 (ip), vehicle: carboxymethylcellulose (CMC) 101 % of control | endpoint: mean survival time, dose: 11.4 mg/kg/injection, schedule: Q03HX032 (ip), vehicle: carboxymethylcellulose (CMC) 106 % of control | endpoint: mean survival time, dose: 12.5 mg/kg/injection, schedule: Q01DX Z (im), vehicle: carboxymethylcellulose (CMC) 106 % of control | endpoint: mean survival time, dose: 12.5 mg/kg/injection, schedule: Q#A X034 (ip), vehicle: carboxymethylcellulose (CMC) 105 % of control | endpoint: mean survival time, dose: 13.0 mg/kg/injection, schedule: Q01DX009 (ip), vehicle: carboxymethylcellulose (CMC) 100 % of control and 102 % of control | endpoint: mean survival time, dose: 15.0 mg/kg/injection, schedule: Q04DX002 (ip), vehicle: carboxymethylcellulose (CMC) 93 % of control and 110 % of control | endpoint: mean survival time, dose: 18.75 mg/kg/injection, schedule: Q01DX001 (ip), vehicle: carboxymethylcellulose (CMC) 107 % of control | endpoint: mean survival time, dose: 23.7 mg/kg/injection, schedule: Q01DX009 (ip), vehicle: carboxymethylcellulose (CMC) 108 % of control | endpoint: mean survival time, dose: 25.0 mg/kg/injection, schedule: Q01DX005 (ip), vehicle: water 110 % of control | endpoint: mean survival time, dose: 25.0 mg/kg/injection, schedule: Q01DX009 (ip), vehicle: Klucel (hydroxypropylcellulose) (HPC) 104 % of control | endpoint: mean survival time, dose: 25.0 mg/kg/injection, schedule: Q04DX003 (ip), vehicle: other 95 % of control and 103 % of control | endpoint: mean survival time, dose: 26.0 mg/kg/injection, schedule: Q03HX032 (ip), vehicle: carboxymethylcellulose (CMC) 111 % of control | endpoint: mean survival time, dose: 29.0 mg/kg/injection, schedule: Q04DX002 (ip), vehicle: carboxymethylcellulose (CMC) 100 % of control | endpoint: mean survival time, dose: 30.0 mg/kg/injection, schedule: Q## X008 (ip), vehicle: other 101 % of control | endpoint: mean survival time, dose: 31.0 mg/kg/injection, schedule: Q01DX001 (ip), vehicle: carboxymethylcellulose (CMC) 103 % of control | endpoint: mean survival time, dose: 32.0 mg/kg/injection, schedule: Q01DX005 (ip), vehicle: water 101 % of control | endpoint: mean survival time, dose: 39.0 mg/kg/injection, schedule: Q01DX009 (ip), vehicle: steriod suspending solution 108 % of control | endpoint: mean survival time, dose: 39.0 mg/kg/injection, schedule: Q01DX Z (ip), vehicle: steriod suspending solution 108 % of control | endpoint: mean survival time, dose: 50.0 mg/kg/injection, schedule: Q01DX001 (ip), vehicle: water 103 % of control | endpoint: mean survival time, dose: 50.0 mg/kg/injection, schedule: Q01DX Z (oral), vehicle: carboxymethylcellulose (CMC) 109 % of control | endpoint: mean survival time, dose: 50.0 mg/kg/injection, schedule: Q02DX009 (ip), vehicle: carboxymethylcellulose (CMC) 103 % of control | endpoint: mean survival time, dose: 50.0 mg/kg/injection, schedule: Q04DX003 (ip), vehicle: Klucel (hydroxypropylcellulose) (HPC) 110 % of control | endpoint: mean survival time, dose: 50.0 mg/kg/injection, schedule: Q04DX003 (ip), vehicle: other 104 % of control and 106 % of control | endpoint: mean survival time, dose: 50.0 mg/kg/injection, schedule: Q04DX003 (ip), vehicle: water 108 % of control | endpoint: mean survival time, dose: 50.0 mg/kg/injection, schedule: Q07DX003 (oral), vehicle: other 100 % of control | endpoint: mean survival time, dose: 50.0 mg/kg/injection, schedule: Q## X003 (ip), vehicle: carboxymethylcellulose (CMC) 105 % of control | endpoint: mean survival time, dose: 58.0 mg/kg/injection, schedule: Q04DX002 (ip), vehicle: carboxymethylcellulose (CMC) 103 % of control | endpoint: mean survival time, dose: 60.0 mg/kg/injection, schedule: Q## X008 (ip), vehicle: other 107 % of control | endpoint: mean survival time, dose: 62.0 mg/kg/injection, schedule: Q01DX001 (ip), vehicle: carboxymethylcellulose (CMC) 106 % of control | endpoint: mean survival time, dose: 65.0 mg/kg/injection, schedule: Q02DX009 (ip), vehicle: steriod suspending solution 106 % of control and 110 % of control | endpoint: mean survival time, dose: 66.0 mg/kg/injection, schedule: Q04DX003 (ip), vehicle: carboxymethylcellulose (CMC) 107 % of control | endpoint: mean survival time, dose: 100.0 mg/kg/injection, schedule: Q01DX001 (ip), vehicle: steriod suspending solution 110 % of control | endpoint: mean survival time, dose: 100.0 mg/kg/injection, schedule: Q01DX001 (ip), vehicle: water 105 % of control | endpoint: mean survival time, dose: 100.0 mg/kg/injection, schedule: Q04DX002 (ip), vehicle: Klucel (hydroxypropylcellulose) (HPC) 105 % of control | endpoint: mean survival time, dose: 100.0 mg/kg/injection, schedule: Q04DX003 (ip), vehicle: water 110 % of control | endpoint: mean survival time, dose: 100.0 mg/kg/injection, schedule: Q07DX003 (oral), vehicle: other 104 % of control | endpoint: mean survival time, dose: 100.0 mg/kg/injection, schedule: Q## X003 (ip), vehicle: carboxymethylcellulose (CMC) 109 % of control | endpoint: mean survival time, dose: 100.0 mg/kg/injection, schedule: Q## X005 (ip), vehicle: carboxymethylcellulose (CMC) 107 % of control | endpoint: mean survival time, dose: 100.0 mg/kg/injection, schedule: Q#A X Z (ip), vehicle: carboxymethylcellulose (CMC) 102 % of control | endpoint: mean survival time, dose: 108.0 mg/kg/injection, schedule: Q02DX009 (ip), vehicle: steriod suspending solution 105 % of control and 107 % of control | endpoint: mean survival time, dose: 125.0 mg/kg/injection, schedule: Q01DX001 (ip), vehicle: carboxymethylcellulose (CMC) 109 % of control | endpoint: mean survival time, dose: 168.0 mg/kg/injection, schedule: Q01DX001 (ip), vehicle: carboxymethylcellulose (CMC) 107 % of control | endpoint: mean survival time, dose: 180.0 mg/kg/injection, schedule: Q02DX009 (ip), vehicle: steriod suspending solution 101 % of control and 104 % of control | endpoint: mean survival time, dose: 200.0 mg/kg/injection, schedule: Q01DX001 (ip), vehicle: water 108 % of control | endpoint: mean survival time, dose: 200.0 mg/kg/injection, schedule: Q01DX006 (iv), vehicle: carboxymethylcellulose (CMC) 102 % of control | endpoint: mean survival time, dose: 264.0 mg/kg/injection, schedule: Q01DX001 (ip), vehicle: other 110 % of control | endpoint: mean survival time, dose: 300.0 mg/kg/injection, schedule: Q01DX009 (ip), vehicle: steriod suspending solution 108 % of control | endpoint: mean survival time, dose: 300.0 mg/kg/injection, schedule: Q01DX Z (ip), vehicle: steriod suspending solution 108 % of control | endpoint: mean survival time, dose: 300.0 mg/kg/injection, schedule: Q03DX Z (ip), vehicle: carboxymethylcellulose (CMC) 103 % of control | endpoint: mean survival time, dose: 336.0 mg/kg/injection, schedule: Q01DX001 (ip), vehicle: carboxymethylcellulose (CMC) 109 % of control | endpoint: mean survival time, dose: 400.0 mg/kg/injection, schedule: Q01DX009 (ip), vehicle: other 106 % of control and 108 % of control | endpoint: mean survival time, dose: 400.0 mg/kg/injection, schedule: Q01DX009 (ip), vehicle: water 102 % of control | endpoint: mean survival time, dose: 400.0 mg/kg/injection, schedule: Q01DX Z (sc), vehicle: carboxymethylcellulose (CMC) 108 % of control | endpoint: mean survival time, dose: 400.0 mg/kg/injection, schedule: Q## X009 (ip), vehicle: carboxymethylcellulose (CMC) 110 % of control | endpoint: mean survival time, dose: 800.0 mg/kg/injection, schedule: Q01DX Z (oral), vehicle: carboxymethylcellulose (CMC) 96 % of control | endpoint: median survival time, dose: 20.0 mg/kg/injection, schedule: Q01DX009 (ip), vehicle: Klucel (hydroxypropylcellulose) (HPC) 106 % of control | endpoint: median survival time, dose: 20.0 mg/kg/injection, schedule: Q01DX015 (ip), vehicle: Klucel (hydroxypropylcellulose) (HPC) 110 % of control | endpoint: median survival time, dose: 65.0 mg/kg/injection, schedule: Q01DX001 (ip), vehicle: steriod suspending solution 100 % of control | endpoint: median survival time, dose: 65.0 mg/kg/injection, schedule: Q01DX009 (ip), vehicle: Klucel (hydroxypropylcellulose) (HPC) 110 % of control | endpoint: median survival time, dose: 65.0 mg/kg/injection, schedule: Q04DX003 (ip), vehicle: steriod suspending solution 110 % of control | endpoint: median survival time, dose: 108.0 mg/kg/injection, schedule: Q01DX001 (ip), vehicle: steriod suspending solution 110 % of control | endpoint: median survival time, dose: 108.0 mg/kg/injection, schedule: Q01DX014 (ip), vehicle: Klucel (hydroxypropylcellulose) (HPC) 94 % of control | endpoint: median survival time, dose: 108.0 mg/kg/injection, schedule: Q04DX003 (ip), vehicle: steriod suspending solution 110 % of control | endpoint: median survival time, dose: 180.0 mg/kg/injection, schedule: Q01DX001 (ip), vehicle: steriod suspending solution 100 % of control | endpoint: median survival time, dose: 180.0 mg/kg/injection, schedule: Q01DX014 (ip), vehicle: Klucel (hydroxypropylcellulose) (HPC) 108 % of control | endpoint: median survival time, dose: 300.0 mg/kg/injection, schedule: Q01DX001 (ip), vehicle: steriod suspending solution 110 % of control | endpoint: median survival time, dose: 300.0 mg/kg/injection, schedule: Q01DX013 (ip), vehicle: Klucel (hydroxypropylcellulose) (HPC) 105 % of control and 107 % of control | endpoint: median survival time, dose: 300.0 mg/kg/injection, schedule: Q01DX014 (ip), vehicle: Klucel (hydroxypropylcellulose) (HPC) 101 % of control | endpoint: median survival time, dose: 400.0 mg/kg/injection, schedule: Q04DX003 (ip), vehicle: Klucel (hydroxypropylcellulose) (HPC) 110 % of control | endpoint: median survival time, dose: 500.0 mg/kg/injection, schedule: Q01DX001 (ip), vehicle: steriod suspending solution 110 % of control | endpoint: median survival time, dose: 500.0 mg/kg/injection, schedule: Q01DX013 (ip), vehicle: Klucel (hydroxypropylcellulose) (HPC) 105 % of control and 107 % of control | endpoint: median survival time, dose: 500.0 mg/kg/injection, schedule: Q01DX014 (ip), vehicle: Klucel (hydroxypropylcellulose) (HPC) 102 % of control | endpoint: median survival time, dose: 833.0 mg/kg/injection, schedule: Q01DX009 (ip), vehicle: Klucel (hydroxypropylcellulose) (HPC) 110 % of control | endpoint: median survival time, dose: 1600.0 mg/kg/injection, schedule: Q04DX003 (ip), vehicle: Klucel (hydroxypropylcellulose) (HPC) 95 % of control
